# Legend:
# [1] = system: H358 cells (KRAS G12C); test: Western blots of downstream KRAS signaling nodes and apoptosis markers in H358 cells; assay type: cell-based; details: for G1 arrest and induction of apoptosis: H358 cells (FIG. 9, left panel); for apoptosis based on c-caspase 3 levels: H358 cells (FIG. 11); for apoptosis based on cleaved PARP levels: H358 cells, erlotinib 5 μM
# Experimental: FIG. 2 depicts western blot analysis of downstream targets of K-Ras signaling. […] Paclitaxel was used as a positive control. The western blots were probed with antibodies for p-AKT, p-ERK, total ERK, p-RSK, p-S6 and cleaved PARP. Cleaved PARP is indicative of apoptosis. B) A549 cells that express the G12S isoform of K-Ras were used a control for K-Ras G12C inhibitor specificity. A549 cells were treated as in A).
# (§1) Western blots were used to analyze downstream KRAS signaling nodes (AKT, ERK, RSK, S6) and a marker of apoptosis (cleaved PARP).
# (§2) Western blots were used to analyze downstream KRAS signaling nodes (AKT, ERK, RSK, S6) and a marker of apoptosis (cleaved PARP). […] Taxol (paclitaxel) was used as a positive control.
# Western blots were used to analyze downstream KRAS signaling nodes (AKT, ERK, RSK, S6) and a marker of apoptosis (cleaved PARP). […] Caspase activity was measured using a standard caspase activity luminescence assay (Capase-Glo, Promega).
# [2] = system: H358 cells; test: Flow cytometry, cell cycle progression and apoptosis (sub-diploid cells); assay type: cell-based; details: single agents
# Experimental: B) The average apoptosis response of NCI-H358, NCI-H1792, NCI-H2122, and SW1573 cell lines generated by flow cytometry as described in A).
# (§3) Apoptosis was measured via flow cytometry. Gated populations=% of subdiploid apoptotic cells.
# as §3
# FIG. 7 depicts apoptosis in NCI-H358 cells treated with II-64 (10 μM), SN38 (5 nM), or a combination treatment (II-64+SN38). […] Apoptosis was measured via flow cytometry. Gated populations=% of subdiploid apoptotic cells.
# Flow cytometry was used to evaluate KRAS G12C inhibitor combination treatments.
# Next, flow cytometry was used to evaluate a KRAS G12C inhibitor in combination with the chemotherapeutic agents paclitaxel or docetaxel.
# [3] = system: KRAS G12C mutant cells lines (H358, H2122, H2030, H1792, Calu-1, MiaPaca2, and NCI-H23); test: Caspase activity luminescence assay (Capase-Glo) with compound II-64 alone or in combination; assay type: cell-based; details: alone
# Experimental: Caspase activity was measured using a standard caspase activity luminescence assay (Capase-Glo, Promega). Taxol (paclitaxel) was used as a positive control.
# [4] = system: SW1573 cells; test: Western blots of KRAS signaling nodes and cleaved PARP in SW1573 cells; assay type: cell-based
# Text: as §2
# [5] = system: mutant cells (H358, Calu-1, MiaPaca2, NCI-H23, SW1463, H1792); test: Western blots / dot blot arrays of signaling pathways maintained or hyper-activated following KRAS G12C inhibition; assay type: cell-based; details: 48 hours, versus untreated cell lines
# Text: FIG. 1 provides western blots for identifying synergistic pathways for targeting in combination with KRAS G12C inhibition. Shown are dot blot arrays for detection of phosphorylated receptor tyrosine kinases (p-RTK) and phosphorylated signaling kinases (ie. p-ERK, or p-AKT) for indicated cell lines treated with indicated K-Ras G12C inhibitor. Notable signaling targets and their respective pathways that are induced or maintained following treatment are summarized for various cell lines.
# Western blots were used to analyze downstream KRAS signaling nodes (AKT, ERK, S6, EGFR/HER2, SRC, MET) and a transcription factor (STAT3). […] Sustained or induced pathways were assessed by comparing untreated cell lines with those treated by compound I-272.
# [6] = molecular target: T1, KRAS G12C 1-169, his-tagged protein, GDP-loaded (Homo sapiens, UniProt P01116, G12C); test: Biochemical assay: covalent binding to KRAS G12C analyzed by mass spectrometry; details: compounds 247-342, measured at 30 min; listed as 272
# T1 construct: KRAS G12C 1-169, his-tagged protein, GDP-loaded
# [7] = system: mutant cell lines (NCI-H23, SW1573); test: Western blots, KRAS G12C inhibitor with ruxolitinib or momelotinib; assay type: cell-based; details: I-272 1 μM; for apoptosis based on cleaved PARP levels: ruxolitinib or momelotinib 1 and 5 μM
# Experimental: Western blots were used to analyze downstream KRAS signaling nodes (AKT, ERK, S6), transcription factors (STAT3, IκBα), protein marker (TBK1) and a marker of apoptosis (cleaved PARP). Treatment of mutant cell lines (NCI-H23, SW1573) were tested with an exemplary KRAS G12C inhibitor (compound I-272, 1 μM) alone or in combination with one of ruxolitinib (JAK 1/2 inhibitor, 1 and 5 μM) or momelotinib (JAK1/2, TBK1, IKKe inhibitor, 1 and 5 μM). […] Further, there is synergistic p-S6 inhibition in each of the combinations. Synergistic apoptosis strongly occurred when TBK1 and non-canonical NFκB signaling is inhibited.
# [8] = system: mutant cell lines (H358, H1792, MiaPaca2); test: Western blots, KRAS G12C inhibitor with JAK inhibitor momelotinib in multiple cell lines; assay type: cell-based
# Experimental: Western blots were used to analyze downstream KRAS signaling nodes (AKT, ERK, S6), a transcription factor (STAT3), and a marker of apoptosis (cleaved PARP). Treatment of mutant cell lines (H358, H1792, MiaPaca2) or a control cell line (A549) was tested with an exemplary KRAS G12C inhibitor (compound I-272, 0.3 and 1 μM) alone or in combination with momelotinib (JAK inhibitor, 5 μM). […] Specifically, when compound I-272 is used in combination with momelotinib (JAK inhibitor) PARP is detected in H358, H1792, and MiaPaca2.
# [9] = system: mutant cell lines (H358, NCI-H23, SW1463, H1792, Calu-1, SW1573); test: Western blots, KRAS G12C inhibitor with SRC inhibitors in multiple cell lines; assay type: cell-based; details: I-272 1 μM
# Text: as §1
# As a control, a non-G12C cell line (A549) was subjected to the same single agent and combination treatments. The KRAS G12C inhibitors show no single agent or additive/synergistic effects in this line.
# [10] = system: Calu-1 cells; test: Western blots of KRAS signaling nodes and cleaved PARP in Calu-1 cells; assay type: cell-based; details: I-272 30, 100, 300, and 1000 nM, Dasatinib 150 nM
# Text: as §1
# [11] = I-272 0.3 and 1 μM, alone, 24 hours
# T1 sequence (P01116 1-169 isoform P01116-2 G12C): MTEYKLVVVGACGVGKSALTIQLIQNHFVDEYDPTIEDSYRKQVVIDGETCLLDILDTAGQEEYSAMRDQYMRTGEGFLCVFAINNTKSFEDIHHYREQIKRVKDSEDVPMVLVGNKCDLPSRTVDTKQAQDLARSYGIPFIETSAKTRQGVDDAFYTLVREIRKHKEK
smiles,measurement,setting,value
"CS(=O)(=O)N1CCN(Cc2cc3nc(-c4cccc5[nH]ncc45)nc(N4CCOCC4)c3s2)CC1 [GDC0941, 2-(1H-indazol-4-yl)-6-(4-methanesulfonyl-piperazin-1-ylmethyl)-4-morpholin-4-yl-thieno[3,2-d]pyrimidine, reference compound]",G1 arrest and induction of apoptosis,[1],G1 arrest with low to modest induction of apoptosis
same,apoptosis based on c-caspase 3 levels,[1],does not induce robust apoptosis
same,cell cycle arrest and induction of apoptosis (flow cytometry),[2],G1 arrest with low to modest induction of apoptosis
"C#Cc1cccc(Nc2ncnc3cc(OCCOC)c(OCCOC)cc23)c1 [erlotinib, reference compound]",G1 arrest and induction of apoptosis,[1],G1 arrest with low to modest induction of apoptosis
same,apoptosis based on c-caspase 3 levels,[1],does not induce robust apoptosis
same,apoptosis based on cleaved PARP levels,"[1]; 24 hours, G12C inhibitors 10 μM, GDC0941 2 μM (FIG. 2)",does not induce robust apoptosis
same,apoptosis based on cleaved PARP levels,"[1]; I-74 15 μM, PD0325901 100 nM, GDC0941 1 μM",does not induce robust apoptosis
same,caspase activity,[3],did not induce significant caspase activity
same,cell cycle arrest and induction of apoptosis (flow cytometry),[2],G1 arrest with low to modest induction of apoptosis
"Cc1nc(NC(=O)N2CCC[C@H]2C(N)=O)sc1-c1ccnc(C(C)(C)C(F)(F)F)c1 [BYL719, Alpelisib]",apoptosis based on cleaved PARP levels,[4],does not induce robust apoptosis
"C=CC(=O)N1CCN(c2ncnc3c(F)c(-c4cc(O)cc5ccccc45)c(Cl)cc23)CC1 [Compound I-272, 1-(4-(6-chloro-8-fluoro-7-(3-hydroxynaphthalen-1-yl)quinazolin-4-yl)piperazin-1-yl)prop-2-en-1-one]",sustained or induced pathways following KRAS G12C inhibition,[5],"sustained or induced pathways suggesting targeting with RTK, PI3K, mTOR, SRC, and JAK/STAT inhibitors"
same,Binding %,[6],++++ (++++indicates binding activity greater than 75%)
same,inhibition of p-ERK,"[7]; alone, 24 hours",clear and nearly complete inhibition of p-ERK
same,inhibition of p-S6 and p-AKT,"[7]; alone, 24 hours",inhibition of p-S6 and p-AKT in NCI-H23
same,apoptosis based on cleaved PARP levels,[7],minimal cleaved PARP
same,inhibition of S6,[8]; [11],some to nearly complete inhibition of S6 (in H358)
same,inhibition of p-ANK,[8]; [11],some inhibition of p-ANK (in H358)
same,inhibition of p-ERK,[8]; [11],some and nearly complete inhibition of p-ERK (in H1792 and H358 respectfully)
same,induction of apoptosis (cleaved PARP),"[8]; I-272 0.3 and 1 μM, momelotinib 5 μM",some induction of apoptosis as observed by the presence of cleaved PARP (in H358 and MiaPaca2)
same,induction of STAT3,"[8]; I-272 alone, also control cell line A549","induces STAT3 in certain cell lines (slight in H358 and H1792, strong in MiaPaca2 and A549)"
same,inhibition of p-ERK,"[9]; alone, 24 hours","clear and, in some cases (H358, SW1463, Calu-1), nearly complete inhibition of p-ERK"
same,inhibition of p-S6,"[9]; dasatinib 100 nM, 24 hours","inhibition of p-S6 in H358, SW1463, H1792, and Calu-1 cell lines"
same,apoptosis based on cleaved PARP levels,"[9]; dasatinib 100 nM, Saracatinib 2 μM",minimal cleaved PARP
same,inhibition of downstream KRAS signaling nodes (Western blot),[10]; 24 hours,"clear and, at higher concentrations, nearly complete inhibition of p-ERK and p-RSK"
same,apoptosis based on cleaved PARP levels,[10],minimal cleaved PARP
"N#CCNC(=O)c1ccc(-c2ccnc(Nc3ccc(N4CCOCC4)cc3)n2)cc1 [momelotinib, reference compound]",apoptosis based on cleaved PARP levels,[7],does not induce robust apoptosis

# Reference: US10111874B2, “Combination therapies for treatment of cancer” (Araxes Pharma LLC, priority 2014, dated 2018)
